10 compounds from ChEMBL document CHEMBL1201862, “PubChem BioAssay data set” (2004) can be followed below.

The source made the active and inactive calls. Some results are limits rather than exact numbers.

Test [1] deals with NAD-dependent protein deacylase sirtuin-5, mitochondrial (Homo sapiens, UniProt Q9NXA8). The experiment in a line: blockers of sirtuin-5 peptide desuccinylation – biochemical, fluorescence imaging, cherry-pick, set 6, dose response (AID 720597).
The target in test [2] is Luciferin 4-monooxygenase (Photinus pyralis, UniProt P08659). The experiment in a line: inhibition of purified Photinus pyralis luciferase – biochemical, luminescence, dose response (AID 1891).
Test [3] is described as follows: Luminescence-based cell-based high throughput dose response assay to identify activators of the DAF-12 from the parasite S. stercoralis (ssDAF-12). Format: functional.
The target in test [4] is Oxysterols receptor LXR-beta (Homo sapiens, UniProt P55055). Description: LXR agonists, Gal4 luciferase reporter, dose response, counter-screen for ssDAF-12 agonist project, cell-based, luminescence, HEK293, S. stercoralis campaign (AID 720737). Format: functional. The following applies: read-out: IC50 (the source's name). (In general: In a reporter assay the amount or activity of a reporter protein is the signal.)

A short description of test [5]: Luminescence Cell-Based Dose Confirmation HTS to Identify Inhibitors of Platelet Dense Granule Release. [Related pubchem assays: 1663 (Primary HTS), 1678 (Summary of Project)]. Format: functional.
For test [6], the target named is 1-phosphatidylinositol 4,5-bisphosphate phosphodiesterase beta-3 (Homo sapiens, UniProt Q01970). The experiment in a line: Fluorescence-based biochemical high throughput dose response assay to identify inhibitors of phospholipase C isozymes (PLC-B3).
The target of test [7] is 1-phosphatidylinositol 4,5-bisphosphate phosphodiesterase gamma-1 (Homo sapiens, UniProt P19174). The experiment in a line: Counterscreen for inhibitors of phospholipase C isozymes (PLC-B3): Fluorescence-based biochemical high throughput dose response assay to identify inhibitors of phospholipase C isozymes (PLC-gamma1).
Test [8] is described as follows: reduced cellular PGC1a acetyl-lysine signal – cell-based, cherry-picked samples, dose response (AID 720514).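 Also: potency may reflect raised or lowered acetylation signal.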 Format: functional.
Test [9] addresses Metabotropic glutamate receptor 3 (Rattus norvegicus, UniProt P31422). The experiment in a line: inhibition of rat mGlu3 glutamate signaling – HEK/GIRK cells, thallium flux, dose response (AID 651839). Format: functional.
A short description of test [10]: cytotoxicity in MITF-independent A375 cells – cell-based, CellTiter-Glo luminescence, dry powder, set 4, counter-screen for MITF inhibitor project, dose response (AID 624364).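 Also: A375 melanoma cells are MITF independent so this is a counter screen.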 The following applies: A-375. The format is functional. A general note: Cellular ATP, detected with luciferase, serves as a proxy for viable cell number.
Test [11] can be described thus: viability loss in MITF-independent A375 cells – cell-based, CellTiter-Glo luminescence, dry powder, set 2, counter-screen for MITF inhibitor project, dose response (AID 624489).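 Also: actives are compounds lowering A375 viability meaning general cytotoxicity.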 Format: functional. The following applies: A-375.
The next test deals with Paired box protein Pax-8 (Homo sapiens, UniProt Q06710). Description: PAX8 transcriptional activity inhibition in RMG-I – RMG-I cells, luciferase, cherry-pick, dose response (AID 687027).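 Also: luciferase reporter driven by Pax8 target thyroperoxidase promoter measured by SteadyGlo luminescence.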 Format: functional, cell-based.
Test [12] can be described thus: OVCAR8 cell viability loss – plate reader, dry powder samples, PAX8 project, dose response (AID 743197). The format is functional, cell-based. The following applies: OVCAR-8.
Test [13] is described as follows: toxicity toward immortalized ovarian surface epithelium – cell-based, plate reader, dry powder samples, cytotoxicity control for PAX8 inhibitor project, dose response (AID 743045). Format: functional.
Test [14] in a line: IGROV1 cell killing – plate reader, dry powder samples, PAX8 inhibitor project, dose response (AID 743043). Format: functional, cell-based. The following applies: IGROV-1.

NAD-dependent protein deacylase sirtuin-5, mitochondrial, sequence (Q9NXA8 whole entry): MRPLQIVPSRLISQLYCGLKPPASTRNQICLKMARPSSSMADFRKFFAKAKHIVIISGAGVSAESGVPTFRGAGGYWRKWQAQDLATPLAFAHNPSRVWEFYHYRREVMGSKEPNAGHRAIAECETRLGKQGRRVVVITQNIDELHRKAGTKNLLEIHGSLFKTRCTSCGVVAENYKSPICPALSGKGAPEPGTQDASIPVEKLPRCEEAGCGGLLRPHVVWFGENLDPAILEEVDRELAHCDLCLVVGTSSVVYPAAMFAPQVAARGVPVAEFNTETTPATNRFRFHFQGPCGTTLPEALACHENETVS
Oxysterols receptor LXR-beta, sequence (P55055 whole entry, the tested form may be a part): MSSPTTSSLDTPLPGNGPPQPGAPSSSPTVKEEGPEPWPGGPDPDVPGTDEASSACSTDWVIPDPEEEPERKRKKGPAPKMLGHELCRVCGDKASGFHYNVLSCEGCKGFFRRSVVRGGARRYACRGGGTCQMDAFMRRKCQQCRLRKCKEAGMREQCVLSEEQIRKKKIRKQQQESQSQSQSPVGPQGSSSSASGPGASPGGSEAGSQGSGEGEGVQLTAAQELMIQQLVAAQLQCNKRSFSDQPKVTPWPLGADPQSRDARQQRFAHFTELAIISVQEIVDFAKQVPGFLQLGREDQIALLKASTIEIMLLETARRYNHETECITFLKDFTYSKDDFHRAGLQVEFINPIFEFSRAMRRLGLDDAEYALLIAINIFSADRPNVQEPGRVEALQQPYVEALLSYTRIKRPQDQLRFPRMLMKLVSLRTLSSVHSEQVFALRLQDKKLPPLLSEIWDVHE
1-phosphatidylinositol 4,5-bisphosphate phosphodiesterase gamma-1, sequence (P19174 whole entry): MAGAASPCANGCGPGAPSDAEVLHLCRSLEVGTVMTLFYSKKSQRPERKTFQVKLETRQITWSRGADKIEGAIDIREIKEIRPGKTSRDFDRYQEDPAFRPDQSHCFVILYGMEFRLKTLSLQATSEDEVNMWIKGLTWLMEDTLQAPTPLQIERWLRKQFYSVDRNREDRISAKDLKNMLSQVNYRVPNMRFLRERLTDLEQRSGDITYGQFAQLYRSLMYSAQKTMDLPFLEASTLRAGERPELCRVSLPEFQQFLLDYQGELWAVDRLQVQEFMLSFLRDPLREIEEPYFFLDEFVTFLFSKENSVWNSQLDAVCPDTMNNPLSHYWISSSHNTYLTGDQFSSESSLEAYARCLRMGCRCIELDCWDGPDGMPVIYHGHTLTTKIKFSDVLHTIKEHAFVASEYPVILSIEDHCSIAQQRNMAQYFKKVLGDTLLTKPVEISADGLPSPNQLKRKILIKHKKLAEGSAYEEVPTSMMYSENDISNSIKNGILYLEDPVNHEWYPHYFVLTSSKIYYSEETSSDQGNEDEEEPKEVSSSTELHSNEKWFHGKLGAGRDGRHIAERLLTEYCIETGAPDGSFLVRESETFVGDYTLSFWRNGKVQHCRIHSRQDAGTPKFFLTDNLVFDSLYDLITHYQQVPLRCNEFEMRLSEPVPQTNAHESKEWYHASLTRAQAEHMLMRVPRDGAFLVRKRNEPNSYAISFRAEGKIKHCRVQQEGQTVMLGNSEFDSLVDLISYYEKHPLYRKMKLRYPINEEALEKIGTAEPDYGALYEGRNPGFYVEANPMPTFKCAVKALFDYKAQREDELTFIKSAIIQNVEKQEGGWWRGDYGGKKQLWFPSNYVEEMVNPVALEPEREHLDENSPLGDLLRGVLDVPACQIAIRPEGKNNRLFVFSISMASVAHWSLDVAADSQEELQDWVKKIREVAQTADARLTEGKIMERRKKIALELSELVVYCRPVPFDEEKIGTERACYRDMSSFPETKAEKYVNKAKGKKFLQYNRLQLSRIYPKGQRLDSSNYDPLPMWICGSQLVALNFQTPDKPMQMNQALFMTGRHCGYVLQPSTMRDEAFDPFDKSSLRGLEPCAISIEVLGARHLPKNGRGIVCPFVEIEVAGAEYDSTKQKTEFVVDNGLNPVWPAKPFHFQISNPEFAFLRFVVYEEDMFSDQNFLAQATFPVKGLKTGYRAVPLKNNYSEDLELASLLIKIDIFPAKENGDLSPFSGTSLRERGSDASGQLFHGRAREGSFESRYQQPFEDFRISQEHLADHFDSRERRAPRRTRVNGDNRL
Luciferin 4-monooxygenase, sequence (P08659 whole entry): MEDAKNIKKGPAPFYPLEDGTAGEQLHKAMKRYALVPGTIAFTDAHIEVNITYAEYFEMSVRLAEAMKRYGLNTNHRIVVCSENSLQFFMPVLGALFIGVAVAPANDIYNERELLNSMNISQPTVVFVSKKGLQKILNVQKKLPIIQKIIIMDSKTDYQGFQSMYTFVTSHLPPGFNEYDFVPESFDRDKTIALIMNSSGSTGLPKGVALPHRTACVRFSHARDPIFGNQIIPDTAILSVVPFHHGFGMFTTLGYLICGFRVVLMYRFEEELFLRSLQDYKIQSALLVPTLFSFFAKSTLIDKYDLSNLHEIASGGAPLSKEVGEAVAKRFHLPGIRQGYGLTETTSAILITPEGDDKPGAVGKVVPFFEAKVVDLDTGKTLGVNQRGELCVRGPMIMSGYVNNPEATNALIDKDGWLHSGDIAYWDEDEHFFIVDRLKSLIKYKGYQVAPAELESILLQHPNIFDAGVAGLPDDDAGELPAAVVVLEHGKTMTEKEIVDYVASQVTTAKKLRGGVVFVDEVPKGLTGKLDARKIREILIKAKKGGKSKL
Paired box protein Pax-8, sequence (Q06710 whole entry): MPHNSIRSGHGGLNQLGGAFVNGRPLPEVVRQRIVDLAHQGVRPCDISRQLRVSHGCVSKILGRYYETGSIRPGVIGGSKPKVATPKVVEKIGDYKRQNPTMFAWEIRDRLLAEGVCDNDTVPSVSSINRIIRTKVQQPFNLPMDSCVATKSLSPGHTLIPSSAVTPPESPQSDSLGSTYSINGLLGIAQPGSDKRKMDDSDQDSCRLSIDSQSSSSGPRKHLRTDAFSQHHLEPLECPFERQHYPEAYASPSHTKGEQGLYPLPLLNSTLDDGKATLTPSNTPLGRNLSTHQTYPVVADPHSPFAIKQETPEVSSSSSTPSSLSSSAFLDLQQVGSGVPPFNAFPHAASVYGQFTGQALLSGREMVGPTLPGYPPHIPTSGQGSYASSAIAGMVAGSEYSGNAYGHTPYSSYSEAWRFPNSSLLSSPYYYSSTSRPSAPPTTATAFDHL
Metabotropic glutamate receptor 3, sequence (P31422 whole entry): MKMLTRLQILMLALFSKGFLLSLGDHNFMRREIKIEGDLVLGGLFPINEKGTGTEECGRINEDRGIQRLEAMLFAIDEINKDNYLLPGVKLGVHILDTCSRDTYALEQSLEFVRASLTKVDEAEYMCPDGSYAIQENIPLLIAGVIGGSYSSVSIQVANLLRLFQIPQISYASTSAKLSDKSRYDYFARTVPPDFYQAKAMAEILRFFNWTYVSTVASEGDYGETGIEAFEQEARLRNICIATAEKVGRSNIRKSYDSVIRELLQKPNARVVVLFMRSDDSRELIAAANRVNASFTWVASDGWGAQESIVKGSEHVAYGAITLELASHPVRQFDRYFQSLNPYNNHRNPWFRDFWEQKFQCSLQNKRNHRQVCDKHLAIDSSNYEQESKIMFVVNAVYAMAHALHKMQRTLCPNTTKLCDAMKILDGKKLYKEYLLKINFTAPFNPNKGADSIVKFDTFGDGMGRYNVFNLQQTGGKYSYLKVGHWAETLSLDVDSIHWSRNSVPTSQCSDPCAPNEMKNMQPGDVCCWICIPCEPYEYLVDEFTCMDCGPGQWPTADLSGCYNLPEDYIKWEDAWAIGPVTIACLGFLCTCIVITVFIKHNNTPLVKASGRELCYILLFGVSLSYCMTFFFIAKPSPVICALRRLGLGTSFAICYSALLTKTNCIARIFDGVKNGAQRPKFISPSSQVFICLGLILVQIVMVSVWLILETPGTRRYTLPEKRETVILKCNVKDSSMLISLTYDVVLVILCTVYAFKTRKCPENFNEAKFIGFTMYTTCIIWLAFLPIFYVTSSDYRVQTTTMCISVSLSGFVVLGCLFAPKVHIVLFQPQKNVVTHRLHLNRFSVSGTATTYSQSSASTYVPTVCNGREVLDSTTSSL

A word on the AC50: it is the concentration at which the activity in the assay is half-maximal. Regarding `C[C@@H]1CN([C@@H](C)CO)C(=O)c2cc(NS(=O)(=O)c3ccccc3)ccc2O[C@@H]1CN(C)CC1CCCCC1`, the AC50 in [1] was > 30 µM (inactive).
For `C[C@H]1CN([C@@H](C)CO)C(=O)c2cccc(NC(=O)NC3CCCCC3)c2O[C@@H]1CN(C)Cc1ccc(C(=O)O)cc1`, in test [1], the AC50 is 22.8 µM (active).
For orientation: IC50 means the midpoint of a concentration-inhibition curve. `N/C(=N\N=C\c1cccc(O)c1)c1nonc1N`: the EC50 in test [2] is 3.47 µM (active); in [4], > 67.5 µM (inactive); in test [5] it was 1.75 µM (active). In [3], the IC50 is > 67.5 µM (inactive).
As to `Cc1ccc(OCCn2c(CCNC(=O)C3CCCCCC3)nc3ccccc32)cc1`, the IC50 in test [6] and in test [7] was > 123 µM (inactive) each time.
Take `C[C@H](CO)N1C[C@H](C)[C@@H](CN(C)C(=O)C2CCCCC2)Oc2cc(C#Cc3ccncc3)ccc2S1(=O)=O`: the AC50 in test [8] is 9.86 µM (active).
For the compound `COc1ccc(C#Cc2ccc(C(=O)N3CCCC(OC)C3)cc2)cc1` (centres undefined), the IC50 in test [9] is 7.15 µM (active).
Regarding `COc1ccc(F)cc1CN1CCN(CC(=O)N2CCc3ccccc32)CC1`, in [8], the AC50 was 24.9 µM (active).
Regarding `O=C1C(Nc2ccccc2)=C(NS(=O)(=O)c2ccccc2[N+](=O)[O-])C(=O)c2ccccc21`, the AC50 in test [10] and in [11] was > 70 µM (inactive) each time.
`N#C/C(=C\c1ccc[nH]1)C(=O)Nc1ccccc1F`: in [3], the IC50 is > 67.5 µM (inactive). In test [4], the EC50 was > 67.5 µM (inactive).
For `O=C(C[C@@H]1CC[C@@H]2[C@H](COC[C@H](O)CN2S(=O)(=O)c2ccccc2Cl)O1)N1CCC(Cc2ccccc2)CC1`, the AC50 on Paired box protein Pax-8 was 13.3 µM (active); in test [12] it was 44.9 µM (active); in test [13] it was 31.5 µM (active); in [14], 37.6 µM (active).
